# Data: US9492460B2, “Carbazole compounds useful as bromodomain inhibitors” (Bristol-Myers Squibb Company, priority 2013, dated 2016)
# Biological target: T1, bromodomain BRD4 (44-168), BRD4 (333-460), and BRD4 (1-477 or 44-460) (Homo sapiens, UniProt O60885)
# T1 construct: BRD4(44-168), BRD4(333-460), BRD4(44-460), BRD4(1-477), O60885-1; fused on or other part: N-terminal BirA biotinylation motif, biotinylated; The TVMV-cleavable His6 tag is removed, except in some BRD4(44-460) runs detected with anti-His terbium cryptate
# Test: Time Resolved Fluorescence Resonance Energy Transfer (TR-FRET) binding assay
# Settings: one of the FRET assays described
row,SMILES,IC50 [nM]
1,"Cc1noc(C)c1-c1cc(C(N)=O)c2c3cc(NCC(F)F)ccc3n(Cc3ccccc3)c2c1 [Example 139, 9-benzyl-6-((2,2-difluoroethyl)amino)-2-(3,5-dimethyl-4-isoxazolyl)-9H-carbazole-4-carboxamide]",< 50
2,"Cc1noc(C)c1-c1cc(C#N)c2c3ccc(C(N)=O)cc3n(C(c3ccccc3)c3ccccc3)c2c1 [Example 194, 5-Cyano-7-(3,5-dimethyl-4-isoxazolyl)-9-(diphenylmethyl)-9H-carbazole-2-carboxamide]",< 50
3,"Cc1noc(C)c1-c1cc(C(N)=O)c2c3cc(N4CCCCS4(=O)=O)ccc3n(Cc3ccc(F)cc3)c2c1 [Example 175, 2-(3,5-dimethyl-4-isoxazolyl)-6-(1,1-dioxido-1,2-thiazinan-2-yl)-9-(4-fluorobenzyl)-9H-carbazole-4-carboxamide]",< 50
4,"Cc1nocc1-c1cc(C(N)=O)c2c3cc(C(=O)N4CCOCC4)ccc3n(Cc3ccc(F)cc3)c2c1 [Example 122, 9-(4-fluorobenzyl)-2-(3-methyl-4-isoxazolyl)-6-(4-morpholinylcarbonyl)-9H-carbazole-4-carboxamide]",< 50
5,Cc1csc(Cn2c3ccc(C(=O)N4CC(C)OC(C)C4)cc3c3c(C(N)=O)cc(-c4c(C)noc4C)cc32)n1 (stereo not shown) [Example 28],< 50
6,"CNC(=O)c1cc(-c2c(C)noc2C)cc2c1c1cc(C(=O)N3CC(F)(F)C3)ccc1n2C(C)c1ccccc1 (stereo not shown) [Example 119, 6-((3,3-difluoro-1-azetidinyl)carbonyl)-2-(3,5-dimethyl-4-isoxazolyl)-N-methyl-9-(1-phenylethyl)-9H-carbazole-4-carboxamide]",< 50
7,"Cc1noc(C)c1-c1cc(C(=O)N(C)C)c2c3cc(C(=O)N4CC(F)(F)C4)ccc3n(C(C)c3ccccc3)c2c1 (stereo not shown) [Example 120, 6-((3,3-difluoro-1-azetidinyl)carbonyl)-2-(3,5-dimethyl-4-isoxazolyl)-N,N-dimethyl-9-(1-phenylethyl)-9H-carbazole-4-carboxamide]",< 500
8,"Cc1noc(C)c1-c1cc(C(N)=O)c2c3ccc(C(C)(C)O)cc3n(C(c3ccccc3)C3(F)CCC3)c2c1 (single isomer, unassigned) [Example 221, 2-(Dimethyl-1,2-oxazol-4-yl)-9-[(1-fluorocyclobutyl)(phenyl)methyl]-7-(2-hydroxypropan-2-yl)-9H-carbazole-4-carboxamide]",< 50
9,Cc1noc(C)c1-c1cc(C(N)=O)c2c3cc(C(=O)N4C(C)(C)CC(O)CC4(C)C)ccc3n(Cc3ccccc3)c2c1 [Example 63],< 50
10,"CNC(=O)c1cc(-c2c(C)noc2C)cc2[nH]c3ccc(N4CCCOC4=O)cc3c12 [Example 168, 2-(3,5-dimethyl-4-isoxazolyl)-N-methyl-6-(2-oxo-1,3-oxazinan-3-yl)-9H-carbazole-4-carboxamide]",< 500
11,Cc1noc(C)c1-c1ccc2c3cc(C(=O)N4CC(C)OC(C)C4)ccc3n(Cc3ccccc3)c2c1 (stereo not shown) [Example 9],< 50
12,"COC(=O)c1ccc2c3c(C#N)cc(-c4c(C)noc4C)cc3n(Cc3ccccc3)c2c1 [Example 182, Methyl 9-benzyl-5-cyano-7-(3,5-dimethyl-4-isoxazolyl)-9H-carbazole-2-carboxylate]",< 7500
13,Cc1noc(C)c1-c1cc(C(N)=O)c2c3cc(C(=O)N4CC(C)OC(C)C4)ccc3n(Cc3cccc(F)c3F)c2c1 (stereo not shown) [Example 41],< 50
14,"COc1ccc2c(c1)c1c(C(N)=O)cc(-c3c(C)noc3C)cc1n2C(C)c1ccccc1 (stereo not shown) [Example 176, 2-(3,5-dimethyl-4-isoxazolyl)-6-methoxy-9-(1-phenylethyl)-9H-carbazole-4-carboxamide]",< 50

# Further lines, results first:
row,IC50 [nM],SMILES
1,< 50,"CNC(=O)c1cc(-c2c(C)noc2C)cc2c1c1cc(C(=O)N3CC(F)C3)ccc1n2Cc1ccc(Cl)cc1 [Example 102, 9-(4-chlorobenzyl)-2-(3,5-dimethylisoxazol-4-yl)-6-(3-fluoroazetidine-1-carbonyl)-N-methyl-9H-carbazole-4-carboxamide]"
2,< 500,"Cc1noc(C)c1-c1cc(C(=O)N2CC(F)C2)c2c3cc(C(=O)N4CC(F)C4)ccc3n(Cc3ccc(F)cc3)c2c1 [Example 129, 2-(3,5-dimethyl-4-isoxazolyl)-4,6-bis((3-fluoro-1-azetidinyl)carbonyl)-9-(4-fluorobenzyl)-9H-carbazole]"
3,< 50,CNC(=O)c1cc(-c2c(C)noc2C)cc2c1c1cc(C(=O)N3CC(F)C3)ccc1n2Cc1ccc(Cl)cc1F [Example 110]
4,< 50,"CCNC(=O)c1cc(-c2c(C)noc2C)cc2c1c1cc(C(=O)N3CC(F)C3)ccc1n2Cc1ccc(F)cc1 [Example 126, 2-(3,5-dimethyl-4-isoxazolyl)-N-ethyl-6-((3-fluoro-1-azetidinyl)carbonyl)-9-(4-fluorobenzyl)-9H-carbazole-4-carboxamide]"
5,< 7500,"Cc1noc(C)c1-c1cc(C(=O)NC(C)C)c2c3cc(C(=O)N4CC(F)C4)ccc3n(Cc3ccc(F)cc3)c2c1 [Example 127, 2-(3,5-dimethyl-4-isoxazolyl)-6-((3-fluoro-1-azetidinyl)carbonyl)-9-(4-fluorobenzyl)-N-isopropyl-9H-carbazole-4-carboxamide]"
6,< 50,Cc1noc(C)c1-c1cc(C(N)=O)c2c3cc(C(=O)N4CC(F)C4)ccc3n(C(C)c3ccc(F)cc3)c2c1 (stereo not shown) [Example 91]
7,< 50,Cc1noc(C)c1-c1cc(C(N)=O)c2c3cc(C(=O)N4CC(C)OC(C)C4)ccc3n(Cc3ccccc3F)c2c1 (stereo not shown) [Example 31]
8,< 50,"Cc1noc(C)c1-c1cc(C(N)=O)c2c3cc(C(=O)N4CC(F)C4)ccc3n(C(C)c3ccc(Cl)cc3)c2c1 (stereo not shown) [Example 94, 9-(1-(4-chlorophenyl)ethyl)-2-(3,5-dimethyl-4-isoxazolyl)-6-((3-fluoro-1-azetidinyl)carbonyl)-9H-carbazole-4-carboxamide]"
